According to patent EP0781283B1, “TRIAZOLOPYRIDAZINES PROCESS AND INTERMEDIATES FOR THEIR PREPARATION AND THEIR USE AS MEDICAMENTS” (Takeda Chemical Industries, Ltd., priority 1994, dated 1996):

Key:
[1] = system: PAF-induced bronchoconstriction; experiment: Effect on platelet activating factor (PAF)-induced bronchoconstriction in guinea pig (Konzett-Roessler method); assay type: in vivo; conditions: P.O., one hour before PAF (1 µg/kg i.v.), male Hartley guinea pigs
Procedure: Male Hartley guinea pigs (body weights about 500 g) were used. Bronchoconstriction induced by PAF (1 µg/kg i.v.) in guinea pigs was measured according to the method of Konzett-Roessler. The guinea pig immobilized in the dorsal position, tracheotomy was anesthetized with urethane (1.5 g/kg i.v.) and the trachea was connected through a cannula to a respirator. The side branch of the tracheal cannula was connected to a broncho transducer (Model 7020, Ugobasile). The volume of overflow air was recorded on a rectigraph (Recte-Hori-8S, San-ei Sokki) through the brancho transducer. After guinea pig was given gallamine (1 mg/kg i.v.), the guinea pig was treated by PAF (1 µg/kg). The drug suspended in a 5% solution of gum arabic was administered orally in a dose of 3 mg/kg or 1 mg/kg one hour before PAF treatment.

Guinea Pig Eosinophils = experiment: Chemotaxis inhibition assay (LTB4-induced chemotaxis of guinea pig eosinophils); assay type: cell-based; conditions: test drug final concentration 10^-5 M, LTB4 10^-8 M, 2 hours; for inhibition at 10 µM: Cavia porcellus, Eosinophil, read-out: Chemotaxis Inhibition Rate (%)
Procedure: Male Hartley guinea pigs (body weights approx. 300 g) were intraperitoneally treated with 2 ml of horse serum (Whittaker Bioproducts) once a week for 8 consecutive weeks. Forty-eight (48) hours after the last treatment, 75 ml of physiological saline was infused into the peritoneal cavity and the lavage was collected and centrifuged at 400 G (1500 rpm) for 5 minutes. The pellet was suspended in 5 ml of Percoll discontinuous density, gradients (specific gravity d=1.07), layered on top of the Percoll suspensions (specific gravity d=1.112:5 ml, d=1.095:10 ml, d=1.090:10 ml, d=1.085:7 ml) and centrifuged (18°C) at 1000 G (2200 rpm) for 30 minutes. The cell layer formed in the boundary zone between the d=1.112 and d=1.095 layers was collected. The collected cell sediment was subjected to hypotonic treatment (suspended in water for 30 seconds) to remove the contaminant erythrocytes.
The sediment was washed three times with Hanks solution containing 10 mM Hepes (Dojin Kagaku) (Hanks-Hepes) and suspended in Hanks-Hepes containing 2% (w/v) human serum albumin (Wako Pure Chemical) (Hanks-Hepes-HSA) at a concentration of 5.56 x 10^6 celles/ml. The eosinophil purity was 92-96% and the viability of eosinophils was not less than 98%.
To a 24-well petri dish, which serves as a lower chamber, 600 µl of LTB4 (final concentration 10^-8 M, Cascade Biochemical Ltd.) in suspension in Hanks-Hepes-HSA solution, was transferred, followed by incubation at 37°C for 30 minutes in carbon dioxide incubator. Separately, 200 µl (5 × 10^6 cells/ml) of eosinophil suspension, previously incubated at 37°C for 15 minutes in a constant-temperature chamber, was added to Chemotaxicell (polycarbonate membrane, pore size 3 µm, thickness 10 µm), which serves as an upper chamber, after the upper chamber was attached to the 24-well petri dish. After 2 hours of reaction in the carbon dioxide incubator, the Chemotaxicell was removed; 60 µl of a 2% (w/v) solution of EDTA in physiological saline was added to the liquid in the lower chamber. After the mixture was ice cooled, the cells migrating into the lower chamber liquid were counted using a blood cell counter (Coulter Counter (trade name)). The test drug, dissolved in dimethyl formamide (DMF), was added to both the upper and lower chambers to a final concentration of 10^-5 M. [formula]

Structure (SMILES)	% Inhibition of PAF-induced bronchoconstriction ([1]; 1 mg/kg) [%]	Chemotaxis Inhibition Rate (%) (Guinea Pig Eosinophils)	inhibition at 10 µM (Guinea Pig Eosinophils) [%]	% Inhibition of PAF-induced bronchoconstriction ([1]; 3 mg/kg) [%]
CCc1cc2ncnn2nc1OCC(C)(C)CS(N)(=O)=O [Example 1, 6-(2,2-dimethyl-3-sulfamoyl-l-propoxy)-7-ethyl[1,2,4]triazolo[1,5-b]pyridazine]	70	35	–	–
CCCc1cc2ncnn2nc1OCC(C)(C)CS(N)(=O)=O [Example 2, 6-(2,2-dimethyl-3-sulfamoyl-1-propoxy)-7-n-propyl[1,2,4]triazolo[1,5-b]pyridazine]	67	–	24	–
CC(C)c1cc2ncnn2nc1OCC(C)(C)CS(N)(=O)=O [Example 3, 6-(2,2-dimethyl-3-sulfamoyl-1-propoxy)-7-isopropyl[1,2,4]triazolo[1,5-b]pyridazine]	72	–	–	–
CCC(CC)(COc1nn2ncnc2cc1C(C)C)CS(N)(=O)=O [Example 4, 6-(2,2-diethyl-3-sulfamoyl-1-propoxy)-7-isopropyl[1,2,4]triazolo[1,5-b]pyridazine]	60	–	23	–
CC(C)Cc1cc2ncnn2nc1OCC(C)(C)CS(N)(=O)=O [Example 5, 6-(2,2-dimethyl-3-sulfamoyl-1-propoxy)-7-isobutyl[1,2,4]triazolo[1,5-b]pyridazine]	–	–	27	–
CC(C)(COc1nn2ncnc2cc1C(C)(C)C)CS(N)(=O)=O [Example 6, 6-(2,2-dimethyl-3-sulfamoyl-1-propoxy)-7-t-butyl[1,2,4]triazolo[1.5-b]pyridazine]	43	38	–	83
CCCCCCc1cc2ncnn2nc1OCC(C)(C)CS(N)(=O)=O [Example 7, 6-(2,2-dimethyl-3-sulfamoyl-1-propoxy)-7-n-hexyl[1,2,4]triazolo[1,5-b]pyridazine]	–	–	24	–
Cc1cc2ncnn2nc1OCC(C)(C)CS(N)(=O)=O [Reference compound, 6-(2,2-dimethyl-3-sulfamoyl-1-propoxy)-7-methyl[1,2,4]triazolo[1,5-b]pyridazine, reference compound]	–	–	12	25
